From patent US20050250822A1, “Substituted benzanilide compound and noxious organism controlling agent” (priority 2002, published 2005)

How the values were obtained:
[1] = test system: diamondback moths (Plutella xylostella) with second instar larvae; test: Insecticidal test against diamondback moth (leaf dip); type: in vivo; conditions: foliar, 144 h, chemical solution 100 ppm, leaf dip, 25° C., dead insects counted after 6 days, read-out: insecticidal rate (rate of dead insects)
Protocol: Insecticidal Test Against Diamondback Moth
(§1) A 10% emulsifiable concentrate (depending on the compounds, 25% wettable powder was applied for the test) of the compound of the present invention was diluted with water containing a spreading agent to prepare a chemical solution with a concentration of 100 ppm. To the chemical solution was dipped leaves of Chinese olive for about 10 seconds, and after air-drying, they were placed in a laboratory dish, then, 10 diamondback moths (Plutella xylostella) with second instar larvae per the dish were released therein, and the dish was covered with a lid having holes and contained at a thermostat chamber at 25° C. A number of dead insect(s) after 6 days was counted and a rate of dead insects was calculated in the same manner as in Test Example 1. Incidentally, the test was carried out with two districts.

[2] = test system: Common cutworms (Spodoptera litura) with second instar larvae; test: Insecticidal test against common cutworm (leaf dip); type: in vivo; conditions: foliar, 144 h, chemical solution 100 ppm, leaf dip, 25° C., dead insects counted after 6 days, read-out: insecticidal rate (rate of dead insects)
Protocol: Insecticidal Test Against Common Cutworm
as §1, with “10 Common cutworms (Spodoptera litura)” for “10 diamondback moths (Plutella xylostella)”, “calculated by” for “calculated in”, “the following calculation formula.” for “the same manner as in Test Example 1.”, “districts. Rate of dead insects (%)=(Number of dead insects/Number of released insects)×100” for “districts.”

Row | Compound | pest or weed control at 100 ppm [1] [%] | pest or weed control at 100 ppm [2] [%]
1 | Cc1cc(C2(C3CC3)CC(c3ccc(Cl)cc3)=NO2)ccc1NC(=O)c1cccc(I)c1C(=O)NC(C)C (centres unmarked) [2-013, N^1-[4-[3-(4-chlorophenyl)-5-cyclopropyl-4,5-dihydroisoxazol-5-yl]-2-methylphenyl]-3-iodo-N 2-isopropylphthalic diamide] | ≥ 80 | ≥ 80
2 | CC1=NOC(c2ccc(Cl)cc2)(c2ccc(NC(=O)c3cccc(I)c3C(=O)NC(C)C)c(C)c2)C1 (centres unmarked) [3-006, N^1-[4-[5-(4-chlorophenyl)-3-methyl-4,5-dihydroisoxazol-5-yl]-2-methylphenyl]-3-iodo-N^2-isopropylphthalic diamide] | ≥ 80 | ≥ 80
3 | Cc1cc(C2(c3ccc(Cl)cc3)CC2(F)F)ccc1NC(=O)c1cccc(I)c1C(=O)NC(C)CS(C)(=O)=O (centres unmarked) [9-065, N^1-[4-(2,2-difluoro-1-(4-chlorophenyl)cyclopropyl)-2-methylphenyl]-3-iodo-N^2-(1-methyl-2-methylsulfonylethyl)phthalic diamide] | ≥ 80 | ≥ 80
4 | Cc1cc(C2(C(F)(F)F)CC(n3cncn3)=NO2)ccc1NC(=O)c1cccc(I)c1C(=O)NC(C)C (centres unmarked) [1-032, 3-Iodo-N^2-isopropyl-N^1-[4-[3-(1,2,4-triazol-1-yl)-5-trifluoromethyl-4,5-dihydroisoxazol-5-yl]-2-methylphenyl]phthalic diamide] | ≥ 80 | ≥ 80
